According to the supplement of paper PMC11451515:

System: SEM cells
Experiment: cell viability relative to DMSO control; higher = less cytotoxic
Conditions: 48 h
Summary of the method: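 Viability values are per-plate percentages of DMSO wells, with background from cell-free wells. Library compounds in DMSO were pin-dosed, in an 11-point threefold series from 47 μM to 0.79 nM, onto NOMO1 or SEM (500 cells/well) or P12-Ichikawa (1000 cells/well) leukemia cells in 1536-well plates (5 μl). Those cells had been adapted for at least four passages in each medium, and CellTiter-Glo One luminescence was read after 48 h at 37°C.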

[1] = HPLM + 10% dialyzed FBS, 0.000781 µM
[2] = HPLM + 10% dialyzed FBS, 0.00234 µM
[3] = HPLM + 10% dialyzed FBS, 0.00702 µM
[4] = HPLM + 10% dialyzed FBS, 0.0211 µM
[5] = HPLM + 10% dialyzed FBS, 0.0632 µM
[6] = HPLM + 10% dialyzed FBS, 0.19 µM
[7] = HPLM + 10% dialyzed FBS, 0.569 µM
[8] = HPLM + 10% dialyzed FBS, 1.71 µM
[9] = HPLM + 10% dialyzed FBS, 5.12 µM
[10] = HPLM + 10% dialyzed FBS, 15.4 µM
[11] = HPLM + 10% dialyzed FBS, 46.1 µM
[12] = RPMI 5 mM glucose + 10% FBS, 0.000781 µM
[13] = RPMI 5 mM glucose + 10% FBS, 0.00234 µM
[14] = RPMI 5 mM glucose + 10% FBS, 0.00702 µM
[15] = RPMI 5 mM glucose + 10% FBS, 0.0211 µM
[16] = RPMI 5 mM glucose + 10% FBS, 0.0632 µM
[17] = RPMI 5 mM glucose + 10% FBS, 0.19 µM
[18] = RPMI 5 mM glucose + 10% FBS, 0.569 µM
[19] = RPMI 5 mM glucose + 10% FBS, 1.71 µM
[20] = RPMI 5 mM glucose + 10% FBS, 5.12 µM
[21] = RPMI 5 mM glucose + 10% FBS, 15.4 µM
[22] = RPMI 5 mM glucose + 10% FBS, 46.1 µM
[23] = RPMI 5 mM glucose + 10% dialyzed FBS, 0.000781 µM
[24] = RPMI 5 mM glucose + 10% dialyzed FBS, 0.00234 µM
[25] = RPMI 5 mM glucose + 10% dialyzed FBS, 0.00702 µM
[26] = RPMI 5 mM glucose + 10% dialyzed FBS, 0.0211 µM
[27] = RPMI 5 mM glucose + 10% dialyzed FBS, 0.0632 µM
[28] = RPMI 5 mM glucose + 10% dialyzed FBS, 0.19 µM
[29] = RPMI 5 mM glucose + 10% dialyzed FBS, 0.569 µM
[30] = RPMI 5 mM glucose + 10% dialyzed FBS, 1.71 µM
[31] = RPMI 5 mM glucose + 10% dialyzed FBS, 5.12 µM
[32] = RPMI 5 mM glucose + 10% dialyzed FBS, 15.4 µM
[33] = RPMI 5 mM glucose + 10% dialyzed FBS, 46.1 µM

SMILES	cell viability [1]	cell viability [2]	cell viability [3]	cell viability [4]	cell viability [5]	cell viability [6]	cell viability [7]	cell viability [8]	cell viability [9]	cell viability [10]	cell viability [11]	cell viability [12]	cell viability [13]	cell viability [14]	cell viability [15]	cell viability [16]	cell viability [17]	cell viability [18]	cell viability [19]	cell viability [20]	cell viability [21]	cell viability [22]	cell viability [23]	cell viability [24]	cell viability [25]	cell viability [26]	cell viability [27]	cell viability [28]	cell viability [29]	cell viability [30]	cell viability [31]	cell viability [32]	cell viability [33]
C[C@H](NC(=O)C(=O)Nc1ccccc1C(C)(C)C)C(=O)N[C@@H](CC(=O)O)C(=O)COc1c(F)c(F)cc(F)c1F	89.4%	106%	103%	73.1%	117%	113%	123%	104%	58.4%	12.6%	18.2%	99.5%	103%	117%	78%	119%	112%	127%	104%	64.9%	9.34%	5.77%	90.8%	109%	104%	74.8%	118%	114%	113%	109%	56.9%	10.3%	6.8%
O=C(O)c1ccccc1C(=O)Nc1ccc(-c2ccccc2)cc1	63.8%	130%	117%	124%	119%	118%	130%	124%	127%	128%	88.5%	–	–	–	–	–	–	–	–	–	–	–	–	–	–	–	–	–	–	–	–	–	–
COc1cc2ncnc(-n3nc(-c4ccccn4)nc3N)c2cc1OC	75.1%	95.7%	96.7%	94.2%	94.9%	103%	79.3%	83.7%	35%	45%	1.68%	105%	103%	114%	100%	85.8%	106%	91.2%	39.1%	3.56%	1.61%	1.33%	83.2%	93.8%	95.1%	85.7%	81.9%	99.8%	83.6%	65.7%	9.89%	11.4%	1.21%
CC[C@H]1OC(=O)[C@H](C)[C@@H](O[C@H]2C[C@@](C)(OC)[C@@H](O)[C@H](C)O2)[C@H](C)[C@@H](O[C@@H]2O[C@@H](C)C[C@H](N(C)C)[C@H]2O)[C@](C)(O)C[C@@H](C)C(=O)[C@H](C)[C@@H](O)[C@]1(C)O	79.6%	80.8%	87.8%	95.4%	80.6%	85.6%	105%	81.4%	89.8%	82.3%	32.2%	83%	94.3%	101%	102%	90%	105%	106%	106%	94.8%	35%	18.7%	79.5%	84.9%	84.7%	96.9%	89.4%	94.5%	92.2%	86.8%	80.6%	80.7%	24.5%
NC(=O)c1ccc(-c2nc(-c3ccc4c(c3)OCCO4)c(-c3ccccn3)[nH]2)cc1	116%	124%	109%	119%	120%	136%	135%	132%	143%	130%	126%	100%	112%	96.3%	114%	105%	111%	102%	110%	119%	112%	108%	119%	126%	111%	137%	121%	118%	124%	131%	122%	138%	146%
COC[C@H](NC(=O)c1cnc(C)s1)C(=O)N[C@@H](COC)C(=O)N[C@@H](Cc1ccccc1)C(=O)[C@@]1(C)CO1	116%	97.1%	110%	121%	92.3%	5.47%	3.74%	3.51%	2.04%	1.53%	2.48%	102%	91.6%	111%	120%	82%	6.81%	3.82%	3.59%	2.31%	1.56%	2.78%	81.9%	87.7%	108%	101%	70.3%	5.77%	3.78%	2.78%	1.96%	1.46%	2.4%
CCNC(=O)C[C@@H]1\N=C(C2=CC=C(Cl)C=C2)/C3=C(C=CC(=C3)OC)[N]4C(=NN=C14)C	–	–	–	–	–	–	–	–	–	–	–	–	–	–	–	–	–	–	–	–	–	–	106%	114%	107%	105%	91.1%	90.2%	63.8%	42.9%	19.6%	6.54%	3.14%
CC1SC/2=C(C(O)=O)/C(=O)C3=CC(=C(C=C3N12)N4CCN(CC4)C\C5=C(C)\OC(=O)O5)F (stereo not drawn)	–	–	–	–	–	–	–	–	–	–	–	61.5%	119%	128%	121%	124%	123%	132%	111%	121%	114%	112%	47.8%	125%	143%	130%	133%	102%	140%	126%	115%	116%	104%
O=C1\C=C(/OC2=C1C=CC=C2C3=CC=CC=C3)N4CCOCC4	45.8%	90.5%	89.2%	80.6%	65.1%	89.3%	90.3%	59%	87.3%	92.3%	58.3%	71.7%	114%	111%	115%	75.6%	91.8%	110%	74%	114%	94.6%	79.6%	48.9%	90%	88.3%	94.4%	66.7%	80%	86.5%	61.9%	101%	84.7%	62.7%
C[C@@H]1C[C@H]2[C@@H]3\C=C(C)/C4=C/C5=C(C[C@]4(C)[C@H]3[C@@H](O)C[C@]2(C)[C@@]1(O)C(=O)COC(C)=O)C=N[N]5C6=CC=CC=C6	134%	120%	111%	104%	85.4%	67.8%	66.4%	56.8%	59.7%	59.9%	58.8%	–	–	–	–	–	–	–	–	–	–	–	143%	117%	116%	97.7%	75%	63.1%	52.8%	54.9%	46.1%	43.3%	35.5%
CC(C)(C)OC(=O)CN(Cc1ccc(Cl)cc1)Cc1ccc([N+](=O)[O-])s1	110%	111%	101%	110%	110%	115%	109%	114%	92.8%	91.5%	43.7%	98.2%	103%	87.5%	94.4%	103%	108%	90.2%	110%	99.9%	95.2%	26.1%	90.7%	97.2%	94.3%	99.8%	92.8%	99.1%	97.3%	94%	91.2%	95.1%	21.1%
Cl.c1cnc2cc3c(cc2n1)C1CNCC3C1	98.5%	102%	104%	104%	118%	113%	114%	122%	108%	113%	119%	98.7%	94.4%	91.3%	105%	111%	117%	111%	105%	97.7%	110%	120%	101%	93.4%	111%	121%	122%	126%	115%	135%	113%	111%	103%
CCOC(=O)Nc1ccc(NCc2ccc(F)cc2)cc1N	122%	122%	128%	120%	103%	123%	119%	112%	113%	107%	90%	115%	116%	123%	136%	102%	131%	122%	111%	113%	134%	97.7%	106%	132%	121%	128%	123%	124%	112%	122%	124%	122%	83.5%
O=C1c2c(O)cccc2[C@H]([C@@H]2O[C@H](CO)[C@@H](O)[C@H](O)[C@H]2O)c2cc(CO)cc(O)c21	99.7%	39%	110%	105%	112%	111%	116%	108%	112%	116%	108%	89.4%	30.7%	92.8%	84%	98.2%	96.3%	106%	91.3%	93%	93.5%	106%	94%	27.4%	92.4%	96.7%	102%	101%	114%	109%	112%	90.1%	119%
CO/N=C(/C(=O)N[C@@H]1C(=O)N2C(C(=O)O)=C(Cn3ccc(=N)n3CCO)CS[C@H]12)c1csc(N)n1	88.8%	90.5%	115%	108%	112%	122%	97.6%	117%	121%	132%	127%	123%	95%	130%	136%	130%	140%	125%	147%	122%	151%	138%	–	–	–	–	–	–	–	–	–	–	–
CN1C(=O)\C(=C/C(=C1/NC2=C(F)C=C(I)C=C2)C(=O)NOCCO)C	92.4%	107%	106%	91.8%	91.7%	78.7%	67.8%	67.5%	77.2%	70.6%	72.9%	97.1%	102%	93.9%	99%	76.9%	72.7%	82%	86%	84%	70.8%	65%	109%	91.8%	98%	78.3%	77.7%	60.4%	72.3%	68.1%	63.2%	59%	67.8%
Cc1cc(O)c2c3c4c(cc(O)c13)C(C)(C)C(=O)c1c(O)cc(O)c(c1-4)C2=O	104%	110%	108%	91.5%	120%	114%	106%	117%	98.7%	90.8%	66.1%	–	–	–	–	–	–	–	–	–	–	–	91.4%	90.9%	92%	94.3%	110%	113%	98%	84.2%	97.4%	88.6%	65.5%
